These are literature values, as cited in patent US7763563B2, “Niobium compounds and hydrates thereof, formulations containing the same, and methods of providing specifications therefor” (H. C. Starck GmbH, priority 2006, dated 2010).

The conditions of this series: prior art compounds, Limar et al.

As to (NH4)3[Nb(O)(C2O4)3]*x H2O, the water solubility is on record as 40 g Nb/1.
